# Experiments:
# Substance-K receptor [1] = biological target: T1, Substance-K receptor (Rattus norvegicus, UniProt P16610); assay: Binding affinity by displacement of radiolabeled GR-100679 from Tachykinin receptor 2 from homogenized rat colon
# T1 sequence (P16610 whole entry): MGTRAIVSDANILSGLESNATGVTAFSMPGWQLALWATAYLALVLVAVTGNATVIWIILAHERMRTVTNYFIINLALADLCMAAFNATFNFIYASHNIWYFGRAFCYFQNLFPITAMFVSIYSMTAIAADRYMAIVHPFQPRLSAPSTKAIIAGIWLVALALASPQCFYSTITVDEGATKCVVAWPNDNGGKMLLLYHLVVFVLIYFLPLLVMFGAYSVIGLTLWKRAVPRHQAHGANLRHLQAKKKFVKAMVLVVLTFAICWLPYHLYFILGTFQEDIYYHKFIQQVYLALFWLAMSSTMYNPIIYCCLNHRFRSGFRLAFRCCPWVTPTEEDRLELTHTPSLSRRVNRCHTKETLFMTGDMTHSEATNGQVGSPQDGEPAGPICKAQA
# Neuromedin-K receptor = biological target: T2, Neuromedin-K receptor (Cavia porcellus, UniProt P30098); assay: Tested for inhibition of binding of [3H]senktide to Tachykinin receptor 3 in guinea pig cerebral cortex membranes; assay type: tissue-based, Membrane
# T2 sequence (P30098 whole entry): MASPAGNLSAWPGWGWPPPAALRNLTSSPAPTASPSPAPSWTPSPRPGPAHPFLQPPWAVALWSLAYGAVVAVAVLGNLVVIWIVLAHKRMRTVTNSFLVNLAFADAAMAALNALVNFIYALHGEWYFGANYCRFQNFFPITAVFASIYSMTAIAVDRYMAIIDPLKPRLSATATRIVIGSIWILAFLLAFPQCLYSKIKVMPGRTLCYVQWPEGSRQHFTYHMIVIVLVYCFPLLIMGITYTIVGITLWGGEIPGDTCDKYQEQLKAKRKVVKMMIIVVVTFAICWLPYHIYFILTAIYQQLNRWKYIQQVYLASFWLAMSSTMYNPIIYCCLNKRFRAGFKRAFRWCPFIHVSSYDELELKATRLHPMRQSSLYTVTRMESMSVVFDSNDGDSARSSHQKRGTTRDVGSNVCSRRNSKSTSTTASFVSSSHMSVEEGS
# Cavia porcellus = assay: In vivo ability to inhibit bronchoconstriction induced by GR-64349 (i.v.) in guinea pigs; assay type: functional
# [2] = biological target: T3, Substance-K receptor (Cavia porcellus) (UniProt Q64077)
# T3 sequence (whole entry): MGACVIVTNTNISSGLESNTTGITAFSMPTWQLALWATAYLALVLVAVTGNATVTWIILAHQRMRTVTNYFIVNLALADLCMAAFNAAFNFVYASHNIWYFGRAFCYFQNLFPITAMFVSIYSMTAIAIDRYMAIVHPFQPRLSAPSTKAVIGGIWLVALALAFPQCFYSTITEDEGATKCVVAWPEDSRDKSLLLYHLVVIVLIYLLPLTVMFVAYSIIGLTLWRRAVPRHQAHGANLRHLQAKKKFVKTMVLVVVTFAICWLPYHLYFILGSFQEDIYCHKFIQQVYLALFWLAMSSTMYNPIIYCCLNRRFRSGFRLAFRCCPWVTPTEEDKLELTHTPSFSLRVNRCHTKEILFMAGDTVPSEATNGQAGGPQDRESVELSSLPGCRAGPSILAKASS
# Description: Binding affinity against NK2 receptor in guinea-pig trachea
# [3] = biological target: T3, Substance-K receptor (Cavia porcellus); assay: Binding affinity against Tachykinin receptor 2 in guinea-pig trachea
# Substance-K receptor [4] = biological target: T4, Substance-K receptor (Homo sapiens, UniProt P21452); assay: Binding affinity against Tachykinin receptor 2 of human expressed in chinese hamster ovary cells; assay type: cell-based, CHO
# T4 sequence (P21452 whole entry): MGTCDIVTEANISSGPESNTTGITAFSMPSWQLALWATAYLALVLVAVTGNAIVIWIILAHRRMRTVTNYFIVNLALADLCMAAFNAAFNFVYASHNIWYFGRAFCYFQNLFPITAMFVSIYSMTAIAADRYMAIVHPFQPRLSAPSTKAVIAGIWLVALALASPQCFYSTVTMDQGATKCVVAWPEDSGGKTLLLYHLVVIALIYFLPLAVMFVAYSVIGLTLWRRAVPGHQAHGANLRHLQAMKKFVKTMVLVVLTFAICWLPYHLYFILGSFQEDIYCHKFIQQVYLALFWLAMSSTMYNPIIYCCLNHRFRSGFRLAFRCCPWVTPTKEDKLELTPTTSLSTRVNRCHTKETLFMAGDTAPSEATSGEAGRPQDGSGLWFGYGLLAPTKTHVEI
Structure (SMILES),Ki (Substance-K receptor [1]),also measured
O=S(=O)(CC1(O)CCN(CCc2c[nH]c3ccc(F)cc23)CC1)c1ccccc1,0.0316 µM,–
[O-][S@+](CC1(O)CCN(CCc2c[nH]c3ccc(F)cc23)CC1)c1ccccc1 (stereo in doubt; 8) [listing 1 of 2 here],0.000316 µM,Ki (Neuromedin-K receptor): 39.8 µM
[O-][S@+](CC1(O)CCN(CCc2c[nH]c3ccc(F)cc23)CC1)c1ccccc1 (stereo in doubt; 5),0.00398 µM,Dose (Cavia porcellus): 3 µM/kg
[O-][S+](CC1(O)CCN(CCc2c[nH]c3ccc(F)cc23)CC1)c1ccccc1 (stereo in doubt; 9) [4-BENZENESULFINYLMETHYL-1-[2-(5-FLUORO-1H-INDOL-3-YL)-ETHYL]-PIPERIDIN-4-OL (STRUCTURAL MIX)],0.00794 µM,–
Cc1ccccc1OCC1(O)CCN(CCc2c[nH]c3ccc(F)cc23)CC1,0.0316 µM,–
[O-][S@+](CC1(O)CCN(CCc2c[nH]c3ccc(F)cc23)CC1)c1ccccc1 (stereo in doubt; 8) [listing 2 of 2 here],–,pKB [2]: 8.7
N#Cc1ccc2[nH]cc(CCN3CCC(NC(=O)c4ccccc4)CC3)c2c1,1.58 µM,–
[O-][S+](CC1(O)CCN(CCc2c[nH]c3ccc(F)cc23)CC1)c1ccccc1 (stereo in doubt; 6) [4-BENZENESULFINYLMETHYL-1-[2-(5-FLUORO-1H-INDOL-3-YL)-ETHYL]-PIPERIDIN-4-OL (STRUCTURAL MIX)],0.000501 µM,–
Cc1ccccc1OCC(O)CNCCc1c[nH]c2ccc(F)cc12 (stereo unspecified),1 µM,–
COC1(C[S@@+]([O-])c2ccccc2)CCN(CCc2c[nH]c3ccc(F)cc23)CC1,0.0001 µM,Dose (Cavia porcellus): 3 µM/kg; pKB [3]: 9.7; Ki (Substance-K receptor [4]): 0.000316 µM; Ki (Neuromedin-K receptor): 20 µM
